Laboratory results: patent US8598357B2, “Benzodioxole piperidine compounds” (Hoffmann-La Roche Inc., priority 2011, dated 2013)
pKi: −log10 of the molar value. Like-named read-outs stand apart in the source and are kept apart here.

Experiments:
D2 receptor = D2 receptor (Homo sapiens (Human), UniProt P14416); experiment: Radioligand binding assay ([3H]-spiperone) on membranes of HEK293 EBNA cells expressing human D2 receptor; conditions: human receptor in HEK293 EBNA cells; 0.7 nM [3H]-spiperone
D3 receptor = D3 receptor (Homo sapiens (Human), UniProt P35462); experiment: Radioligand binding assay ([3H]-spiperone) on membranes of HEK293 EBNA cells expressing human D3 receptor; conditions: read-out: D3 Ki; human receptor in HEK293 EBNA cells; 0.5 nM [3H]-spiperone
5-HT2A receptor = 5-HT2A receptor (Homo sapiens (Human), UniProt P28223); experiment: Radioligand binding assay ([3H]-ketanserin) on membranes of HEK293 EBNA cells expressing human 5-HT2A receptor; conditions: read-out: 5HT2A Ki
Experimental: HEK293 EBNA cells were transiently transfected with expression plasmids encoding for the human D2 or D3 or for the human 5-HT2A receptor, respectively. The cells were harvested 48 h post-transfection, washed three times with cold PBS and stored at −80° C. prior to use. The pellet was suspended in cold 50 mM Tris-HCl buffer containing 10 mM EDTA (pH 7.4) and was homogenized with a Polytron (Kinematica AG, Basel, Switzerland) for 20-30 sec at 12.000 rpm. After centrifugation at 48.000×g for 30 min at 4° C., the pellet was resuspended in cold 10 mM Tris-HCl buffer containing 0.1 mM EDTA (pH 7.4), homogenized, and centrifuged as above. This pellet was further resuspended in a smaller volume of ice cold 10 mM Tris-HCl buffer containing 0.1 mM EDTA (pH 7.4) and homogenized with a Polytron for 20-30 sec at 12.000 rpm. The protein content of this homogenate was determined with the Bio-Rad (Bradford) Protein Assay (Biorad Laboratories GmbH, München, Germany) according to the instructions of the manufacturer using gamma globulin as the standard. This homogenate was stored at −80° C. in aliquots and thawed immediately prior to use.
Aliquots of membrane preparations were thawed at RT, resuspended in assay buffer (D2, D3: 50 mM Tris-HCl, 120 mM NaCl, 5 mM MgCl2, 1 mM EDTA, 5 mM KCl, 1.5 mM CaCl2, pH=7.4; 5-HT2A: 50 mM Tris-HCl, 10 mM MgCl2, 1 mM EGTA, pH=7.4), homogenized with a Polytron for 20-30 sec at 12.000 rpm and adjusted to a final concentration of approximately 7.5 μg protein/well (D2, D3) and 15 μg protein/well (5-HT2A), respectively.
The nonspecific binding was determined with equally composed reaction mixtures in the presence of 10 μM unlabelled spiperone. Per well 45 μl of Microscint 40 (Perkin Elmer, Schwerzenbach, Switzerland) was added, plates for sealed, shaken for 20 min and counted for 3 min on a Topcount Microplate Scintillation Counter (Can berra Packard SA, Ziirich, Switzerland) with quenching correction.
The CPM value for each duplicate of a concentration of competing compound was averaged (y1), then the % specific binding was calculated according to the equation (((y1−non-specific)/(total binding−non-specific))×100). Graphs were plotted with the % specific binding using XLfit, a curve fitting program that iteratively plots the data using Levenberg-Marquardt algorithm. The single site competition analysis equation used was y=A+((B−A)/(1+((x/C)D))), where y is the % specific binding, A is the minimum y, B is the maximum y, C is the IC50, x is the log 10 of the concentration of the competing compound and D is the slope of the curve (the Hill Coefficient). […] The affinity constant (K) was calculated using the Cheng-Prusoff equation Ki=(IC50/1+([L]/Kd), where [L] is the concentration of radioligand and Kd is the dissociation constant of the radioligand at the receptor as determined by the saturation isotherm.

[1] = human receptor in HEK293 EBNA cells, 1.1 nM [3H]-ketanserin

Chain of D2 receptor (P14416 whole entry): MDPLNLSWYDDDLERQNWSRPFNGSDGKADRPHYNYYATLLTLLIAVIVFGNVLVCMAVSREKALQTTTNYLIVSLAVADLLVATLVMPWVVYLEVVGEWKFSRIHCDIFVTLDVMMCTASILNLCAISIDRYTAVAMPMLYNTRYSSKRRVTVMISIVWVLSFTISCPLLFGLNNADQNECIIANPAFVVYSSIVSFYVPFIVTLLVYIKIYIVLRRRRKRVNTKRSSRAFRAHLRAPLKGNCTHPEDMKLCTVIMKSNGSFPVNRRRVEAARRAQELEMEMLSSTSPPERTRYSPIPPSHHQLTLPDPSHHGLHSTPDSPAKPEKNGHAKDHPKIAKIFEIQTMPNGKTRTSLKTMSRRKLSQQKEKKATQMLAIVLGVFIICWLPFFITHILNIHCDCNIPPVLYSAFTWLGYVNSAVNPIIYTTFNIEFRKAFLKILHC
Chain of D3 receptor (P35462 whole entry): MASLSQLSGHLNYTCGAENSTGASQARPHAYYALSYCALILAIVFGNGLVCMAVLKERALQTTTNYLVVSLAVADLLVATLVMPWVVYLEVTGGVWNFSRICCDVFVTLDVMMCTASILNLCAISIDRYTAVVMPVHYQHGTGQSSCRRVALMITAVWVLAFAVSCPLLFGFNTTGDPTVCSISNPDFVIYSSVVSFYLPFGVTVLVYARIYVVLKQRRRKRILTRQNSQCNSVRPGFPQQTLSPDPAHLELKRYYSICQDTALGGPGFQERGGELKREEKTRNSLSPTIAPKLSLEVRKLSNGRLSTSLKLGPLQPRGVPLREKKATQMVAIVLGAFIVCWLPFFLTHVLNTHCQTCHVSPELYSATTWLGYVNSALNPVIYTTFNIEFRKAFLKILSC

SMILES | pKi (D2 receptor) | pKi (D3 receptor) | pKi (5-HT2A receptor) | pKi (5-HT2A receptor; [1])
CCC(C)C(=O)N[C@H]1CC[C@H](CCN2CCC(c3cccc4c3OCO4)CC2)CC1 (stereo partly drawn) [Example 51, Trans-N-{4-[2-(4-Benzo[1,3]dioxol-4-yl-piperidin-1-yl)-ethyl]-cyclohexyl}-2-methyl-butyramide] | 6.45 | 7.86 | 7.60 | 
O=C(N[C@H]1CC[C@H](CCN2CCC(c3cccc4c3OCO4)CC2)CC1)C1CCS(=O)(=O)C1 (stereo partly drawn) [Example 52, 1,1-Dioxo-tetrahydro-thiophene-3-carboxylic acid-trans-{4-[2-(4-benzo[1,3]dioxol-4-yl-piperidin-1-yl)-ethyl]-cyclohexyl}-amide] | 6.89 | 7.79 | 8.34 | 
O=C(CC1CCOCC1)N[C@H]1CC[C@H](CCN2CCC(c3cccc4c3OCO4)CC2)CC1 [Example 53, Trans-N-{4-[2-(4-Benzo[1,3]dioxol-4-yl-piperidin-1-yl)-ethyl]-cyclohexyl}-2-(tetrahydro-pyran-4-yl)-acetamide] | 6.45 | 8.06 |  | 7.53
O=C(N[C@H]1CC[C@H](CCN2CCC(c3cccc4c3OCO4)CC2)CC1)C1CCC1 [Example 54, Cyclobutanecarboxylic acid-trans-{4-[2-(4-benzo[1,3]dioxol-4-yl-piperidin-1-yl)-ethyl]-cyclohexyl}-amide] | 7.00 | 8.10 | 7.77 | 
CS(=O)(=O)CC(=O)N[C@H]1CC[C@H](CCN2CCC(c3cccc4c3OCO4)CC2)CC1 [Example 55, Trans-N-{4-[2-(4-Benzo[1,3]dioxol-4-yl-piperidin-1-yl)-ethyl]cyclohexyl}-2-methanesulfonyl-acetamide] | 6.78 | 8.33 |  | 7.57
O=C(N[C@H]1CC[C@H](CCN2CCC(c3cccc4c3OCO4)CC2)CC1)c1ccc(N2CCOCC2)cc1 [Example 56, Trans-N-{-4-[2-(4-Benzo[1,3]dioxol-4-yl-piperidin-1-yl)-ethyl]-cyclohexyl}-4-morpholin-4-yl-benzamide] | 6.23 | 8.00 |  | 7.73
O=C(N[C@H]1CC[C@H](CCN2CCC(c3cccc4c3OCO4)CC2)CC1)c1ccnc2ccccc12 [Example 57, Quinoline-4-carboxylic acid-trans-N-{4-[2-(4-benzo[1,3]dioxol-4-yl-piperidin-1-yl)-ethyl]-cyclohexyl}-amide] | 6.43 | 8.21 |  | 7.64
O=C(N[C@H]1CC[C@H](CCN2CCC(c3cccc4c3OCO4)CC2)CC1)c1ccc2c(c1)OCCO2 [Example 58, 2,3-Dihydro-benzo[1,4]dioxine-6-carboxylic acid-trans-N-{4-[2-(4-benzo[1,3]dioxol-4-yl-piperidin-1-yl)-ethyl]-cyclohexyl}-amide] | 6.46 | 8.43 | 7.70 | 
O=C(Cc1ccc2c(c1)OCO2)N[C@H]1CC[C@H](CCN2CCC(c3cccc4c3OCO4)CC2)CC1 [Example 59, 2-Benzo[1,3]dioxol-5-yl-trans-N-{4-[2-(4-benzo[1,3]dioxol-4-yl-piperidin-1-yl)-ethyl]-cyclohexyl}-acetamide] | 6.49 | 8.40 |  | 7.43
O=C(N[C@H]1CC[C@H](CCN2CCC(c3cccc4c3OCO4)CC2)CC1)C1COc2ccccc2C1 (stereo partly drawn) [Example 60, Chroman-3-carboxylic acid-trans-N-{4-[2-(4-benzo[1,3]dioxol-4-yl-piperidin-1-yl)-ethyl]-cyclohexyl}-amide] | 5.98 | 8.17 |  | 7.66
CN1CCC(C(=O)N[C@H]2CC[C@H](CCN3CCC(c4cccc5c4OCO5)CC3)CC2)CC1 [Example 61, 1-Methyl-piperidine-4-carboxylic acid-trans-N-{4-[2-(4-benzo[1,3]dioxol-4-yl-piperidin-1-yl)-ethyl]-cyclohexyl}-amide] | 6.83 | 7.45 |  | 8.23
CC1(C(=O)N[C@H]2CC[C@H](CCN3CCC(c4cccc5c4OCO5)CC3)CC2)COC1 [Example 62, 3-Methyl-oxetane-3-carboxylic acid-trans-N-{4-[2-(4-benzo[1,3]dioxol-4-yl-piperidin-1-yl)-ethyl]-cyclohexyl}-amide] | 6.65 | 7.41 |  | 7.66
CO[C@H]1CC[C@H](CC(=O)N[C@H]2CC[C@H](CCN3CCC(c4cccc5c4OCO5)CC3)CC2)CC1 [Example 63, Trans-N-{4-[2-(4-Benzo[1,3]dioxol-4-yl-piperidin-1-yl)-ethyl]-cyclohexyl}-2-(4-methoxy-cyclohexyl)-acetamide] | 6.44 | 8.09 |  | 7.46
C[C@@H](O)C(=O)N[C@H]1CC[C@H](CCN2CCC(c3cccc4c3OCO4)CC2)CC1 [Example 64, (R)-trans-N-{4-[2-(4-Benzo[1,3]dioxol-4-yl-piperidin-1-yl)-ethyl]-cyclohexyl}-2-hydroxy-propionamide] | 6.57 | 7.96 |  | 7.97
O=C(CO)N[C@H]1CC[C@H](CCN2CCC(c3cccc4c3OCO4)CC2)CC1 [Example 65, Trans-N-{4-[2-(4-Benzo[1,3]dioxol-4-yl-piperidin-1-yl)-ethyl]-cyclohexyl}-2-hydroxy-acetamide] | 6.53 | 8.04 |  | 7.67
O=C(N[C@H]1CC[C@H](CCN2CCC(c3cccc4c3OCO4)CC2)CC1)C1(O)CCCCC1 [Example 66, 1-Hydroxy-cyclohexanecarboxylic acid-trans-N-{4-[2-(4-benzo[1,3]dioxol-4-yl-piperidin-1-yl)-ethyl]-cyclohexyl}-amide] | 6.66 | 7.76 | 8.41 | 
COC1(C(=O)N[C@H]2CC[C@H](CCN3CCC(c4cccc5c4OCO5)CC3)CC2)CCCCC1 [Example 67, 1-Methoxy-cyclohexanecarboxylic acid-trans-N-{4-[2-(4-benzo[1,3]dioxol-4-yl-piperidin-1-yl)-ethyl]-cyclohexyl}-amide] | 6.71 | 7.41 |  | 7.94
CN1CCN(CC(=O)N[C@H]2CC[C@H](CCN3CCC(c4cccc5c4OCO5)CC3)CC2)CC1 [Example 68, Trans-N-{4-[2-(4-Benzo[1,3]dioxol-4-yl-piperidin-1-yl)-ethyl]-cyclohexyl}-2-(4-methylpiperazin-1-yl)-acetamide] | 6.98 | 7.70 |  | 7.51
CS(=O)(=O)N[C@H]1CC[C@H](CCN2CCC(c3cccc4c3OCO4)CC2)CC1 [Example 69, Trans-N-{4-[2-(4-Benzo[1,3]dioxol-4-yl-piperidin-1-yl)-ethyl]-cyclohexyl}-methanesulfonamide] | 6.38 | 7.98 |  | 7.50
O=S(=O)(N[C@H]1CC[C@H](CCN2CCC(c3cccc4c3OCO4)CC2)CC1)c1ccccc1 [Example 70, Trans-N-{4-[2-(4-Benzo[1,3]dioxol-4-yl-piperidin-1-yl)-ethyl]cyclohexyl}-benzenesulfonamide] | 7.20 | 8.44 | 7.28 | 
O=S(=O)(N[C@H]1CC[C@H](CCN2CCC(c3cccc4c3OCO4)CC2)CC1)c1ccc(F)cc1 [Example 71, N-trans-{4-[2-(4-Benzo[1,3]dioxol-4-yl-piperidin-1-yl)-ethyl]-cyclohexyl}-4-fluoro-benzenesulfonamide] | 6.98 | 8.58 | 7.18 | 
Cn1cnc(S(=O)(=O)N[C@H]2CC[C@H](CCN3CCC(c4cccc5c4OCO5)CC3)CC2)c1 [Example 72, 1-Methyl-1H-imidazole-4-sulfonic acid-trans-N-{4-[2-(4-benzo[1,3]dioxol-4-yl-piperidin-1-yl)-ethyl]-cyclohexyl}-amide] | 6.94 | 7.91 |  | 7.19
O=C(N[C@H]1CC[C@H](CCN2CCC(c3cccc4c3OCO4)CC2)CC1)C(F)(F)F [Example 73, Trans-N-{4-[2-(4-Benzo[1,3]dioxol-4-yl-piperidin-1-yl)-ethyl]-cyclohexyl}-2,2,2-trifluoro-acetamide] | 6.46 | 7.67 |  | 7.43
O=C(N[C@H]1CC[C@H](CCN2CCC(c3cccc4c3OCO4)CC2)CC1)N1CCc2ccccc21 [Example 74, 2,3-Dihydro-indole-1-carboxylic acid N-trans-{4-[2-(4-benzo[1,3]dioxol-4-yl-piperidin-1-yl)-ethyl]-cyclohexyl}-amide] | 6.64 | 8.29 | 7.60 | 
CN(C)C(=O)N[C@H]1CC[C@H](CCN2CCC(c3cccc4c3OCO4)CC2)CC1 [Example 75, N-Trans-3-{4-[2-(4-Benzo[1,3]dioxol-4-yl-piperidin-1-yl)-ethyl]cyclohexyl}-1,1-dimethyl-urea] | 7.28 | 7.48 |  | 7.34
O=C(CF)N[C@H]1CC[C@H](CCN2CCC(c3cccc4c3OCO4)CC2)CC1 [Example 76, Trans-N-{4-[2-(4-Benzo[1,3]dioxol-4-yl-piperidin-1-yl)-ethyl]-cyclohexyl}-2-fluoro-acetamide] | 6.64 | 7.91 |  | 7.40
O=C(Nc1ccc(Cl)cc1)N[C@H]1CC[C@H](CCN2CCC(c3cccc4c3OCO4)CC2)CC1 [Example 77, N-trans-1-{4-[2-(4-Benzo[1,3]dioxol-4-yl-piperidin-1-yl)-ethyl]-cyclohexyl}-3-(4-chloro-phenyl)-urea] | 5.57 | 7.63 |  | 6.65
CN(C)S(=O)(=O)N[C@H]1CC[C@H](CCN2CCC(c3cccc4c3OCO4)CC2)CC1 [Example 78, Trans-N-{4-[2-(4-benzo[1,3]dioxol-4-yl-piperidin-1-yl)-ethyl]-cyclohexyl}-N,N-dimethyl-sulfamide] | 6.64 | 7.94 |  | 7.68
